Key:
breast cancer patients [1] = test: Response to neoadjuvant everolimus in a breast cancer cohort (GSE119262), by mTOR phenocopy status; format: in vivo, human; settings: neoadjuvant everolimus followed by surgery
breast cancer patients [2] = test: Pathologic complete response in the chemoimmunotherapy (pembrolizumab) arm of the I-SPY2 trial, by TP53 loss phenocopy status; format: in vivo, human; settings: pembrolizumab with anthracycline/taxane-based neoadjuvant chemotherapy backbone
Description: In addition, we sought to identify published cohorts with pre-chemotherapy RNA profiling with pathologic response data. The majority of data we could find was in the setting of breast cancer neoadjuvant chemotherapy, where response could be assessed at the time of surgery. Our dataset evaluating clinical treatment response and the phenocopy signatures in breast cancer included 18 breast cancer cohorts with gene expression data downloaded from the Gene Expression Omnibus (GEO) with the following accession numbers: GSE22093, GSE25055, GSE41998, GSE20194, GSE4779, GSE8465, GSE66399, GSE16446, GSE20271, GSE18864, GSE25065, GSE32646, GSE164458, GSE22226, GSE192341, GSE163882, GSE34138, GSE32603, and one additional publicly available TNBC gene expression cohort^48. Finally, we utilized gene expression and clinical response data from the I-SPY2 trial as an independent clinical validation cohort for our phenocopy signatures and breast cancer neoadjuvant therapy response, also downloaded from GEO (GSE194040).
Each of the breast cancer datasets had annotations for pathologic response (pCR versus no pCR) for each sample. The TP53 phenocopy signature was then applied without modification to pre-treatment samples from each breast cancer study, with normalization/batch correction as above. […]

Question: For `CO[C@H]1C[C@@H]2CC[C@@H](C)[C@@](O)(O2)C(=O)C(=O)N2CCCC[C@H]2C(=O)O[C@H]([C@H](C)C[C@@H]2CC[C@@H](OCCO)[C@H](OC)C2)CC(=O)[C@H](C)/C=C(\C)[C@@H](O)[C@@H](OC)C(=O)[C@H](C)C[C@H](C)/C=C/C=C/C=C/1C` [everolimus], which “tumors that responded to anti-mTOR therapy” value (breast cancer patients [1]; pre-treatment non-mTOR phenocopy tumors) is on record?
Answer: Its value is 75.8%.

Question: And the “tumors that responded to anti-mTOR therapy” value (breast cancer patients [1]; pre-treatment samples predicted as mTOR mutation phenocopies)?
Answer: Its value is 100%.

Question: With pembrolizumab as the molecule, how does the pCR rate (breast cancer patients [2]; TP53 loss phenocopy samples) read?
Answer: Its pCR rate is 64%.

Question: What about the pCR rate (breast cancer patients [2]; non-phenocopy samples) of the same molecule?
Answer: Its pCR rate is 28%.
